Experimental data: patent US6313111A, “Substituted 6H-1,3,4-thiadiazine-2-amines, the use thereof as anaesthetising, cardiovascular and hypometabolic agents, and pharmaceutical composition containing them” (priority 1998, dated 2001)
Several values for one entry are separate records, joined by “and”; a condition that tells them apart may be missing. Equal entries are not always repeated. Structures can show the parent of a compound that is named as a salt.

Columns and labels:
Type in all cases: in vivo, mice of the BALB line
[1] = behaviour of mice after injection of compound 1; conditions: for behaviour of mice: 140 mg/kg
Procedure: In all cases tests were carried out on mice of the BALB line of 3-4 month age. Non-toxic doses of compounds under test varying from 60 to 400 mg/kg were used in all experiments. In the case of water-soluble compounds, aqueous solutions of the test compounds were injected intraperitoneally (i.p.), while water-insoluble compounds were introduced orally (p.o.).
The behaviour of mice to injection of compound 1 at 140 mg/kg dosage is as follows: […]

[2] = rate of oxygen consumption of mice in closed unit with optic-acoustic gas analyser MN 5130; conditions: relative to starting content
Procedure: In all cases tests were carried out on mice of the BALB line of 3-4 month age. […] In the case of water-soluble compounds, aqueous solutions of the test compounds were injected intraperitoneally (i.p.), while water-insoluble compounds were introduced orally (p.o.).
Rectal temperature changes (absolute magnitues in ° C.) were measured using a medicinal electrothermometer TREM-1 (Table 1). The rate of oxygen consumption was monitored by measuring concentration of oxygen in a closed testing unit with optic-acoustic gas analyser MN 5130. The data on oxygen consumption are given in percents relative to the starting content of oxygen taken as 100%. (Table 2).

[3] = lethal dose (LD16, LD50) in mice

## c1ccc(C2=NN=C(N3CCOCC3)SC2)cc1 [Compound 1, 2-Morpholino-5-phenyl-6H-1,3,4-thiadiazine, hydrobromide]
[1]; 15-180 minutes
  behaviour of mice: akinesia, mio-relaxation, lack of reflexes
[1]; 180-360 minutes
  behaviour of mice: restoration of motor activity
[1]; 5 minutes
  behaviour of mice: decrease in motor activity, suppression of breathing
[1]; non-toxic dose levels
  tremor or convulsions: not accompanied by tremor or convulsions
[2]; 10.0 mg/kg i.p., 0 min
  consumption of oxygen (O2): 100 ± 6.9%
[2]; 10.0 mg/kg i.p., 10 min
  consumption of oxygen (O2): 94.0 ± 5.5%
[2]; 10.0 mg/kg i.p., 20 min
  consumption of oxygen (O2): 87.3 ± 9.9%
[2]; 10.0 mg/kg i.p., 30 min
  consumption of oxygen (O2): 78.2%
[2]; 10.0 mg/kg i.p., 60 min
  consumption of oxygen (O2): 83.3 ± 18.1%
[2]; 10.0 mg/kg i.p., 90 min
  consumption of oxygen (O2): 75.9 ± 19.3%
[2]; 10.0 mg/kg i.p., 120 min
  consumption of oxygen (O2): 95.6 ± 10.8%
[2]; 10.0 mg/kg i.p., 180 min
  consumption of oxygen (O2): 80.6 ± 9.9%
[2]; 10.0 mg/kg i.p., 240 min
  consumption of oxygen (O2): 92.6 ± 3.9%
[2]; 10.0 mg/kg i.p., 300 min
  consumption of oxygen (O2): 109.7 ± 8.8%
[2]; 35.0 mg/kg i.p., 0 min
  consumption of oxygen (O2): 100 ± 7.4%
[2]; 35.0 mg/kg i.p., 10 min
  consumption of oxygen (O2): 86.3 ± 13.1%
[2]; 35.0 mg/kg i.p., 20 min
  consumption of oxygen (O2): 73.6 ± 2.6%
[2]; 35.0 mg/kg i.p., 30 min
  consumption of oxygen (O2): 68.4%
[2]; 35.0 mg/kg i.p., 60 min
  consumption of oxygen (O2): 70.4 ± 7.1%
[2]; 35.0 mg/kg i.p., 90 min
  consumption of oxygen (O2): 72.1 ± 10.4%
[2]; 35.0 mg/kg i.p., 120 min
  consumption of oxygen (O2): 68.4 ± 11.2%
[2]; 35.0 mg/kg i.p., 180 min
  consumption of oxygen (O2): 78.4 ± 9.3%
[2]; 35.0 mg/kg i.p., 240 min
  consumption of oxygen (O2): 97.4 ± 5.6%
[2]; 35.0 mg/kg i.p., 300 min
  consumption of oxygen (O2): 85.1 ± 3.8%
[2]; 140.0 mg/kg i.p., 0 min
  consumption of oxygen (O2): 100 ± 21.7%
[2]; 140.0 mg/kg i.p., 10 min
  consumption of oxygen (O2): 26.3 ± 6.8%
[2]; 140.0 mg/kg i.p., 20 min
  consumption of oxygen (O2): 46.8 ± 4.7%
[2]; 140.0 mg/kg i.p., 30 min
  consumption of oxygen (O2): 32.2%
[2]; 140.0 mg/kg i.p., 60 min
  consumption of oxygen (O2): 49.3 ± 9.8%
[2]; 140.0 mg/kg i.p., 90 min
  consumption of oxygen (O2): 43.6 ± 18.6%
[2]; 140.0 mg/kg i.p., 120 min
  consumption of oxygen (O2): 49.3 ± 15.4%
[2]; 140.0 mg/kg i.p., 180 min
  consumption of oxygen (O2): 78.9 ± 10.6%
[2]; 140.0 mg/kg i.p., 240 min
  consumption of oxygen (O2): 88.8 ± 9.8%
[2]; 140.0 mg/kg i.p., 300 min
  consumption of oxygen (O2): 105.3 ± 20.5%
[2]; 190 mg/kg (1/2 LD16) i.p., 5 min
  consumption of oxygen (O2): 43%
[2]; 190 mg/kg (1/2 LD16) i.p., 15 min
  consumption of oxygen (O2): 71.7%
[2]; 190.0 mg/kg i.p., 0 min, hydrobromide
  consumption of oxygen (O2): 100% and 100 ± 27.8%
[2]; 190.0 mg/kg i.p., 10 min
  consumption of oxygen (O2): 26.3 ± 9.8%
[2]; 190.0 mg/kg i.p., 20 min
  consumption of oxygen (O2): 71.7 ± 4.1%
[2]; 190.0 mg/kg i.p., 30 min
  consumption of oxygen (O2): 49.2%
[2]; 190.0 mg/kg i.p., 60 min, hydrobromide
  consumption of oxygen (O2): 29.5% and 29.5 ± 15.0%
[2]; 190.0 mg/kg i.p., 90 min, hydrobromide
  consumption of oxygen (O2): 47.5% and 47.5 ± 6.8%
[2]; 190.0 mg/kg i.p., 120 min, hydrobromide
  consumption of oxygen (O2): 36.9% and 36.9 ± 22.8%
[2]; 190.0 mg/kg i.p., 180 min, hydrobromide
  consumption of oxygen (O2): 55.3% and 55.3 ± 9.1%
[2]; 190.0 mg/kg i.p., 240 min, hydrobromide
  consumption of oxygen (O2): 99.6% and 99.6 ± 11.2%
[2]; 190.0 mg/kg i.p., 300 min, hydrobromide
  consumption of oxygen (O2): 151.6% and 151.6 ± 20.7%
[2]; 279.0 mg/kg i.p., 0 min
  consumption of oxygen (O2): 100 ± 5.2%
[2]; 279.0 mg/kg i.p., 10 min
  consumption of oxygen (O2): 32.6 ± 2.2%
[2]; 279.0 mg/kg i.p., 20 min
  consumption of oxygen (O2): 26.7 ± 2.2%
[2]; 279.0 mg/kg i.p., 30 min
  consumption of oxygen (O2): 20.7%
[2]; 279.0 mg/kg i.p., 60 min
  consumption of oxygen (O2): 9.3 ± 5.1%
[2]; 279.0 mg/kg i.p., 90 min
  consumption of oxygen (O2): 10.9 ± 5.5%
[2]; 279.0 mg/kg i.p., 120 min
  consumption of oxygen (O2): 9.3 ± 5.9%
[2]; 279.0 mg/kg i.p., 180 min
  consumption of oxygen (O2): 9.3 ± 4.0%
[2]; 279.0 mg/kg i.p., 240 min
  consumption of oxygen (O2): 13.0 ± 8.7%
[2]; 279.0 mg/kg i.p., 300 min
  consumption of oxygen (O2): 10.9 ± 1.0%
[2]; 365.0 mg/kg i.p., 0 min
  consumption of oxygen (O2): 100 ± 4.7%
[2]; 365.0 mg/kg i.p., 10 min
  consumption of oxygen (O2): 15.2 ± 3.1%
[2]; 365.0 mg/kg i.p., 20 min
  consumption of oxygen (O2): 15.8 ± 5.0%
[2]; 365.0 mg/kg i.p., 30 min
  consumption of oxygen (O2): 13.6%
[2]; 365.0 mg/kg i.p., 60 min
  consumption of oxygen (O2): 13.3 ± 3.7%
[2]; 365.0 mg/kg i.p., 90 min
  consumption of oxygen (O2): 13.1 ± 2.0%
[2]; 365.0 mg/kg i.p., 120 min
  consumption of oxygen (O2): 17.0 ± 3.4%
[2]; 365.0 mg/kg i.p., 180 min
  consumption of oxygen (O2): 11.2 ± 3.4%
[2]; 365.0 mg/kg i.p., 240 min
  consumption of oxygen (O2): 8.2 ± 2.0%
[2]; dose 36.5 mg/kg (1.06 mM/kg) i.p., 300 min
  consumption of oxygen (O2): 18.4 ± 2.0%
[3]; i.p.
  1/2 LD16, calculated: 140 mg/kg
  1/2 LD16, experimental: 190 mg/kg
  1/16 LD16 (lower end of dose range 1/16 LD16 -LD50): 10 mg/kg
[3]; mouse, in vivo, ip, read-out: LD50 (upper end of dose range 1/16 LD16 -LD50)
  LD50: 365 mg/kg
